Data set [1] deals with extensor tonic convulsions. In words: Electroshock induced convulsion inhibition assay (E.S.). Format: in vivo, mice (Cox standard strain albino male). The settings on record: Mus musculus, 1 h; oral dose (gavage); mice; 60 min after administration; 0.1 second, 50 milliampere electroshock through corneal electrodes; inhibition of extensor tonic convulsions in half of the animals. From the text: The compounds of Formula I are anticonvulsant agents with a high therapeutic ratio and long half-life and are therefore useful in the treatment and prevention of convulsions in mammals. In particular, the compounds are effective against tonic extensor seizures elicited by maximal electroshock and should therefore be useful for treating generalized tonic-clonic ("grand mal"), cortical focal, complex partial (temporal lobe epilepsy), simple partial (focal motor), and post-traumaticseizures in humans. […] In the electroshock induced convulsion inhibition assay (E.S.), the compound to be tested was dissolved in water (5% --sufficient hydrochloric acid was added for those compounds which were not isolated as a salt in order to effect dissolution) and administered by gavage to each of ten Cox standard strain albino male mice (18-24 g) at the dose level being investigated. Sixty minutes after compound administration, the mice were subjected to a 0.1 second, 50 milliampere electroshock through corneal electrodes. The animals were examined and evaluated immediately after the electroshock for the occurrence of clonic, flexor tonic, or extensor tonic convulsions, or death and the ED50 was determined for each compound as the dose which inhibited the occurrence of extensor tonic convulsions in one half of the animals immediately after the electroshock. For comparison, 18 milliamperes was usually sufficient to produce extensor tonic convulsions in about half of the control animals; at 50 milliamperes, almost all control animals (receiving vehicle only) died.

The test system of a further data set is seizures. The settings on record: man, cited from earlier work.

The structures appear in SMILES notation. Some results are limits rather than exact numbers.

Regarding `Cl.Nc1ccc(C(=O)NC2CCCc3ccccc32)cc1` (stereo not shown) [Example 7, 4-amino-N-(1,2,3,4-tetrahydro-1-naphthalenyl)benzamide hydrochloride], the ED50 (in general, the dose that gives a 50% effect, or the effect in half of the subjects) in data set [1] came to 44.5 mg/kg.

`Nc1ccc(C(=O)NC2CCc3ccccc32)cc1` (stereo not shown) [Example 8, 4-Amino-N-(2,3-dihydro-1H-inden-1-yl)benzamide] registered a 50% effective dose (ED50) in data set [1] of 31 mg/kg.

As to `C[C@H](NC(=O)c1ccc(N)cc1)c1cccc2ccccc12.Cl` [Example 9, (S)-4-amino-N-[1-(1-naphthalenyl)ethyl]benzamide hydrochloride], in data set [1], the 50% effect level (ED50) was put at a dose of 110 mg/kg.

`Nc1ccc(C(=O)Nc2cccc3c2CCCC3)cc1` [Example 10, 4-Amino-N-(5,6,7,8-tetrahydro-1-naphthalenyl)benzamide]: in data set [1], it took a dose of 100 mg/kg to reach the 50% effect level (ED50).

`Cl.Nc1ccc(C(=O)Nc2cccc3ccccc23)cc1` [Example 11, 4-Amino-N-1-naphthalenylbenzamide hydrochloride]: the ED50 in data set [1] came out at 62 mg/kg.

Compound `Nc1ccc(C(=O)Nc2ccc3ccccc3c2)cc1` [Example 12, 4-Amino-N-2-naphthalenylbenzamide] yielded a 50% effective dose (ED50) in data set [1] of over 200 mg/kg.

As for `O=C1NC(=O)C(c2ccccc2)(c2ccccc2)N1` [phenytoin], in the data set with seizures (ataxia), the “plasma level at which ataxia is obvious” value is 30000 ng/mL. The “plasma level at which lethargy is apparent” value in the data set with seizures (lethargy) was “about 40 mcg/ml”. In the data set with seizures (nystagmus), the “plasma level at which nystagmus is seen” value is listed as “around 20 mcg/ml”. Further, the “plasma level at which seizures are controlled” value in the data set on seizures was at least 10 µg/mL.

Values taken from patent publication US4632939A, “Anticonvulsant agents” (Eli Lilly and Company, priority 1985, dated 1986).
